{"source": "patent US20250297225A1", "about": "“MULTIPLE HEART TISSUE CULTURE FUSION” (IMBA - INSTITUT FÜR MOLEKULARE BIOTECHNOLOGIE GMBH, priority 2022, published 2025)", "key": {"[1]": {"system": "cardioids (LV, RV, OFT, Atria, AVC)", "details": "for dosage at which severe compartment-specific and stage-specific effects were observed: human", "experimental": "All cardioids were treated with the teratogens from mesoderm induction (day 0) until day 9.5.\nAll cardioids were treated with the teratogens from mesoderm induction (day 0) until day 9.5. *p<0.05, **p<0.01, ***p<0.001, ****p<0.0001.\nhPSCs (WTC or H9 lines) are seeded in a 24-well plate (TPP, #92024) at 30-40 k cells per well in E8 medium+ROCKi (5 μM Y-27632, Tocris #1254). […] The medium contains BSA which is important for efficient cardioid generation. 24 hours after seeding in the 24-well plate, the cells are induced with mesoderm induction media. Mesoderm induction media is made up of CDM containing FGF2 (30 ng/ml, QKine, Cambridge/UK), LY294002 (5 μM, Tocris, #1130), Activin A (specific concentrations for different cardioid subtypes-see below, QKine, Cam-bridge/UK), BMP4 (10 ng/ml, R&D Systems RD-314-BP-050), and CHIR99021 (specific concentrations for different cardioid subtypes—see below, R&D Systems RD-4423/50). After 36-40 hours cells are dissociated with TrypleE (Gibco, #12605010) and seeded in a Corning ultra-low attachment 96 well plate (Corning, #7007) at 15-20 k cells/well in Cardiac Mesoderm Patterning Media One made up of CDM containing ROCK inhibitor and for all protocols besides the LV 1 μg/ml of insulin (Roche, #11376497001) plus specific factors depending on cardioid subtype (see below). After seeding, the cells are spun down in a centrifuge for 4 mins at 200 g. This protocol is termed 2D-3D standard protocol. Alternatively, hPSCs were seeded into Corning ultra-low attachment 96 well plate with a density of 5000 cells/well. Cells were seeded in a volume of 200 ml containing E8+ROCKi and collected by centrifugation for 5 minutes at 200 g. As another option, 2500 cells/well were seeded directly into induction media+ROCKi and collected by centrifugation for 5 minutes at 200 g. For both protocols, cells were induced with mesoderm induction media as described for the 2D->3D protocol. These were termed 3D protocols. For both protocols, 24 hours later (or at day 2.5) the cells are fed with Cardiac Mesoderm Patterning Media One. For the next two days, the medium is changed to Cardiac Mesoderm Patterning Media Two made up of CDM containing specific factors depending on the cardioid subtype (see below) and exchanged every day. For the subsequent two days, media is exchanged every day with Cardiomyocyte Differentiation Media CDM medium containing BMP4 (10 ng/ml), FGF2 (8 ng/ml) and insulin (10 μg/ml). For the subsequent days of culture, media is exchanged every other day with CDM containing insulin (10 μg/ml).\nSpinning disk confocal microscopes (Olympus spinning disk system based on an IX3 Series (IX83) inverted microscope, equipped with a Yokogawa W1 spinning disc) were used to image fixed tissue sections. Live imaging was carried out using an inverted widefield microscope for brightfield and fluorescence (Axioobserver Z1 equipped with an sCMOS camera (Hamamatsu Orca Flash 4). Cardioids in 96-well plates were also imaged using a Celigo Imaging Cytometer microscope (Nexcelom Biosciences, LLC)."}, "[2]": {"system": "cardioids (LV, RV, OFT, Atria, AVC)", "test": "Real-time qPCR of cardioids treated with teratogens", "assay_type": "cell-based, human", "description": "The isolated RNA was reverse transcribed to cDNA using the Reverse Transcription Kit (Invitrogen, #18080044) with a C100 Touch Bio-Rad Thermal Cycler. Quantitative PCR was performed using the GoTaq qPCR master mix 2× (Promega, #A6001) with a Bio-Rad CFX384 Real-Time thermal cycler. Values of gene expression of each sample were obtained in triplicates. The Log-fold change of the sample from PBGD as a housekeeping gene and a pluripotent stem cell sample for normalization were used."}, "[3]": {"system": "FHF and aSHF progenitors / cardioids", "test": "Lineage specification of cardiac progenitors/cardioids by retinoic acid dosage", "assay_type": "cell-based, human", "details": "LV (FHF progenitor), Cardiac Mesoderm Patterning Media One", "description": "These were termed 3D protocols.\nThe retinoic acid concentration should be low as a higher concentration (>100 nM) leads to FHF-derived atria, not ventricular fate.\nThe retinoic acid addition here helps drive the RV identity."}, "[4]": {"details": "cited from earlier work"}}, "note": "“Also recorded” adds a separate entry of the source.", "data": [{"smiles": "COc1cc(C)c(/C=C/C(C)=C/C=C/C(C)=C/C(=O)O)c(C)c1C", "note": "[Acitretin]", "values": [{"measurement": "CM differentiation and morphology of treated cardioids", "setting": "[1]", "result": "Inefficient CM differentiation and morphological changes"}, {"measurement": "defects in OFT, atrial, and AVC cardioids", "setting": "[1]", "result": "specification, patterning and morphogenesis defects"}, {"measurement": "dosage at which severe compartment-specific and stage-specific effects were observed", "setting": "[1]", "result": 5, "unit": "nM"}]}, {"smiles": "CC1=C(/C=C/C(C)=C/C=C/C(C)=C/CO)C(C)(C)CCC1", "note": "[All trans Retinol]", "values": [{"measurement": "gene expression in OFT cardioids (OFT, ventricular, chamber, atrial genes)", "setting": "[2]; OFT cardioids", "result": "downregulation of OFT and upregulation of ventricular genes"}, {"measurement": "effect on all the other cardioid subtypes", "setting": "[1]", "result": "unaffected"}, {"measurement": "morphological effect on OFT cardioids", "setting": "[1]", "result": "severe morphological effect on OFT cardioids"}, {"measurement": "size difference between treated and untreated cardioids", "setting": "[1]", "result": "no size difference between treated and untreated cardioids within one protocol the except LV cardioids treated with 50 nM"}]}, {"smiles": "CC(=O)Oc1ccccc1C(=O)O", "note": "[Aspirin]", "values": [{"measurement": "gene expression differences vs control cardioids", "setting": "[2]; high 30 μM dosage", "result": "no obvious gene expression differences; also recorded: neither observed morphological nor significant gene expression differences"}, {"measurement": "size and TNNI-GFP expression compared to untreated cardioids", "setting": "[1]", "result": "no size and TNNI-GFP expression differences"}]}, {"smiles": "CC1=C(/C=C/C(C)=C/C=C/C(C)=C\\C(=O)O)C(C)(C)CCC1", "note": "[Isotretinoin]", "values": [{"measurement": "defects in OFT, atrial, and AVC cardioids", "setting": "[1]", "result": "specification, patterning and morphogenesis defects"}, {"measurement": "dosage at which severe compartment-specific and stage-specific effects were observed", "setting": "[1]", "result": 1, "unit": "nM"}]}, {"smiles": "CC1=C(/C=C/C(C)=C/C=C/C(C)=C/C(=O)O)C(C)(C)CCC1", "note": "[retinoic acid]", "values": [{"measurement": "retinoic acid concentration that leads to FHF-derived atria, not ventricular fate", "setting": "[3]", "result": "> 100", "unit": "nM"}]}, {"smiles": "O=C1CCC(N2C(=O)c3ccccc3C2=O)C(=O)N1", "note": "(stereo not shown) [thalidomide]", "values": [{"measurement": "human therapeutic plasma concentrations", "setting": "[4]", "result": "~2.4", "unit": "µM"}, {"measurement": "expression of chamber-specific marker NPPA", "setting": "[2]; d9.5 cardioids", "result": "downregulation of the chamber-specific marker NPPA for all lineages except for the RV and OFT"}, {"measurement": "expression of compartment identity markers (NR2F2, IRX1/4)", "setting": "[2]; d9.5 cardioids", "result": "dosage-specific misregulation of compartment identity markers (NR2F2, IRX1/4)"}, {"measurement": "expression of lineage specific genes", "setting": "[2]; d9.5 cardioids, fold change normalized to housekeeping gene and pluripotency", "result": "mis-regulation of lineage specific genes"}]}]}
